Data as given in the supplement of paper PMC10307832.

Key:
Assay in all cases: relative viability (nuclei count vs DMSO), 5 days (fraction); higher = more cells survive
MK-8033 + Pictilisib = compound: Cn1cc(-c2cnc3ccc4ccc(CS(=O)(=O)NCc5ccccn5)cc4c(=O)c3c2)cn1 [MK-8033] + CS(=O)(=O)N1CCN(Cc2cc3nc(-c4cccc5[nH]ncc45)nc(N4CCOCC4)c3s2)CC1 [Pictilisib] (partner 1 µM)
How it was run: (§1)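 Relative viability is defined as nuclei in treated wells over nuclei in vehicle wells. Duplicate plates were run and medians reported. Lung cancer cell lines in 1536-well plates were dosed by pin tool one day after seeding, with one drug or with a fixed anchor-drug dose plus five library-drug doses (not always all listed) in √10 steps, and nuclei were counted after 5 days.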

Irinotecan + Bortezomib = compound: CCc1c2c(nc3ccc(OC(=O)N4CCC(N5CCCCC5)CC4)cc13)-c1cc3c(c(=O)n1C2)COC(=O)[C@]3(O)CC [Irinotecan] + CC(C)C[C@H](NC(=O)[C@H](Cc1ccccc1)NC(=O)c1cnccn1)B(O)O [Bortezomib] (partner 0.002 µM)
How it was run: as §1

Irinotecan + Crizotinib = compound: CCc1c2c(nc3ccc(OC(=O)N4CCC(N5CCCCC5)CC4)cc13)-c1cc3c(c(=O)n1C2)COC(=O)[C@]3(O)CC [Irinotecan] + C[C@@H](Oc1cc(-c2cnn(C3CCNCC3)c2)cnc1N)c1c(Cl)ccc(F)c1Cl [Crizotinib] (partner 1 µM)
How it was run: as §1

MK-8033 + Trametinib = compound: Cn1cc(-c2cnc3ccc4ccc(CS(=O)(=O)NCc5ccccn5)cc4c(=O)c3c2)cn1 [MK-8033] + CC(=O)Nc1cccc(-n2c(=O)n(C3CC3)c(=O)c3c(Nc4ccc(I)cc4F)n(C)c(=O)c(C)c32)c1 [Trametinib] (partner 0.02 µM)
How it was run: as §1

**Q.** With UMC-11 as the cell line, how does the relative viability (MK-8033 + Pictilisib; first compound 0.02 µM) read?
**A.** Its relative viability is 0.746.

**Q.** What about the relative viability (MK-8033 + Pictilisib; first compound 0.06325 µM) of the same cell line?
**A.** The relative viability was 0.511.

**Q.** And the relative viability (MK-8033 + Pictilisib; first compound 0.2 µM)?
**A.** The relative viability was 0.804.

**Q.** What about the relative viability (MK-8033 + Pictilisib; first compound 0.6325 µM) of the same cell line?
**A.** The relative viability was 0.932.

**Q.** What about the relative viability (MK-8033 + Pictilisib; first compound 2 µM) of the same cell line?
**A.** Its relative viability is 0.699.

**Q.** And the relative viability (Irinotecan + Bortezomib; first compound 0.6325 µM)?
**A.** The relative viability was 0.595.

**Q.** And the relative viability (Irinotecan + Bortezomib; first compound 2 µM)?
**A.** Its relative viability is 0.519.

**Q.** And the relative viability (Irinotecan + Bortezomib; first compound 6.325 µM)?
**A.** Its relative viability is 0.184.

**Q.** And the relative viability (Irinotecan + Bortezomib; first compound 20 µM)?
**A.** Its relative viability is 0.139.

**Q.** And the relative viability (Irinotecan + Crizotinib; first compound 0.6325 µM)?
**A.** The relative viability was 0.296.

**Q.** And the relative viability (Irinotecan + Crizotinib; first compound 2 µM)?
**A.** Its relative viability is 0.374.

**Q.** What about the relative viability (Irinotecan + Crizotinib; first compound 6.325 µM) of the same cell line?
**A.** The relative viability was 0.326.

**Q.** And the relative viability (Irinotecan + Crizotinib; first compound 20 µM)?
**A.** Its relative viability is 0.157.

**Q.** What about the relative viability (MK-8033 + Trametinib; first compound 0.02 µM) of the same cell line?
**A.** Its relative viability is 0.714.

**Q.** And the relative viability (MK-8033 + Trametinib; first compound 0.06325 µM)?
**A.** The relative viability was 0.457.

**Q.** And the relative viability (MK-8033 + Trametinib; first compound 0.2 µM)?
**A.** The relative viability was 0.604.

**Q.** What about the relative viability (MK-8033 + Trametinib; first compound 0.6325 µM) of the same cell line?
**A.** Its relative viability is 0.643.

**Q.** And the relative viability (MK-8033 + Trametinib; first compound 2 µM)?
**A.** The relative viability was 0.642.
